Test results from ChEMBL document CHEMBL5303766, “Data for DCP probe FHT-2344” (2022).

How the values were obtained:
Settings in all cases: for ΔTm: Compound concentration 10.0 uM
[1] = biological target: T1, Serine/threonine-protein kinase tousled-like 1 (Homo sapiens) (UniProt Q9UKI8); experiment: TLK1 SGC Tm panel (DSF)
T1 sequence (whole entry): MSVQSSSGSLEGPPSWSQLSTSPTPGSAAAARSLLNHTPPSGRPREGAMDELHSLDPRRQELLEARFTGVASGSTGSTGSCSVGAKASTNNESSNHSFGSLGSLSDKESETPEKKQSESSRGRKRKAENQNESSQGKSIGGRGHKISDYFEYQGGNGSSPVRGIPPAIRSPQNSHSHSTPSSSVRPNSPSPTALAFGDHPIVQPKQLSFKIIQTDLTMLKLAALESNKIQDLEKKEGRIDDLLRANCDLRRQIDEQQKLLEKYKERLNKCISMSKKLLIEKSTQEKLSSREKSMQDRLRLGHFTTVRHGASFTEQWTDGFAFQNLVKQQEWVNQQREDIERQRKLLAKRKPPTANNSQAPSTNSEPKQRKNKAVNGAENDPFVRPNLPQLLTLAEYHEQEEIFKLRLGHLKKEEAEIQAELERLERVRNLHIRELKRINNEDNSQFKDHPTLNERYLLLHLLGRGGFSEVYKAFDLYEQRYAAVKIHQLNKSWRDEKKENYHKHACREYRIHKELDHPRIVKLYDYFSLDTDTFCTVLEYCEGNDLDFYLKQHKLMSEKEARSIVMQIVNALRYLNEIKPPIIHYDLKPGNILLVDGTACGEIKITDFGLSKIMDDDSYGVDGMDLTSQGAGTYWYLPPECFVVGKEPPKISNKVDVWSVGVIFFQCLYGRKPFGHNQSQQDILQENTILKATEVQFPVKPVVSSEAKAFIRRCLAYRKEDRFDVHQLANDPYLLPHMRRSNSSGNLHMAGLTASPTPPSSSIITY

[2] = biological target: Cyclin-dependent kinase-like 1 (Homo sapiens) (UniProt Q00532); experiment: CDKL1 SGC Tm panel (DSF)
Cyclin-dependent kinase-like 1 (Homo sapiens), sequence (Q00532 whole entry): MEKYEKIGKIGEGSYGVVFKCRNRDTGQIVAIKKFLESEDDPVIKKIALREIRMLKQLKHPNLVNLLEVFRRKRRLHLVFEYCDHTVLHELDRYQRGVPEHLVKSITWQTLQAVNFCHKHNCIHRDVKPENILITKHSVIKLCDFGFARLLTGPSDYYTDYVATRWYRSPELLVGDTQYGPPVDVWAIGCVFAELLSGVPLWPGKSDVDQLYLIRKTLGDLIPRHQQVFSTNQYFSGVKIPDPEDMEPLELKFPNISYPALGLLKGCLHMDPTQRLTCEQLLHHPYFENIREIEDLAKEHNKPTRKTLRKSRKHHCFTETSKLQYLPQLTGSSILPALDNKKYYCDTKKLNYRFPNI

[3] = biological target: Fibroblast growth factor receptor 2 (Homo sapiens) (UniProt P21802); experiment: FGFR2 SGC Tm panel (DSF)
Fibroblast growth factor receptor 2 (Homo sapiens), sequence (P21802 22-821 limits assumed): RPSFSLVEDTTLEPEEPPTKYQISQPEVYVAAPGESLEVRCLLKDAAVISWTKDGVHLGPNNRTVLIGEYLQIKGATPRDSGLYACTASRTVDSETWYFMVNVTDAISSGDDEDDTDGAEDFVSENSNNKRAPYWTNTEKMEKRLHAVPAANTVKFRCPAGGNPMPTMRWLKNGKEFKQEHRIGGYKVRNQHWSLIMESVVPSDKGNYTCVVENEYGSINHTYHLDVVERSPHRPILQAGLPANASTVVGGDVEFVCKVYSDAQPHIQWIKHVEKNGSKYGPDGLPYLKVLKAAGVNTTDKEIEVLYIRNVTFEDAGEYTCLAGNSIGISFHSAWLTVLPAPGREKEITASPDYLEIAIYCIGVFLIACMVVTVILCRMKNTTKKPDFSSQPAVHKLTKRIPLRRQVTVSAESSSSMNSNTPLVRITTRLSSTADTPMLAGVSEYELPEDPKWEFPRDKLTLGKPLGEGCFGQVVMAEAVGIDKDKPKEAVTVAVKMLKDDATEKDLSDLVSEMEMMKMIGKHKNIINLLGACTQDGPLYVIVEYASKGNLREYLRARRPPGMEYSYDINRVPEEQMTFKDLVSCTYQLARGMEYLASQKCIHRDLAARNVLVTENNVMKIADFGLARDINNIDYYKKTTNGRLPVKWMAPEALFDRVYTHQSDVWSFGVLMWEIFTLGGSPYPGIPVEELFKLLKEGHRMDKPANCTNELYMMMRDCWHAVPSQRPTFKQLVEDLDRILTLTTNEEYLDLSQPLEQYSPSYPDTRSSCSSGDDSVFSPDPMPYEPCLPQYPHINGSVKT

[4] = biological target: Casein kinase I isoform epsilon (Homo sapiens) (UniProt P49674); experiment: CSNK1E SGC Tm panel (DSF)
Casein kinase I isoform epsilon (Homo sapiens), sequence (P49674 whole entry, looked up, canonical isoform): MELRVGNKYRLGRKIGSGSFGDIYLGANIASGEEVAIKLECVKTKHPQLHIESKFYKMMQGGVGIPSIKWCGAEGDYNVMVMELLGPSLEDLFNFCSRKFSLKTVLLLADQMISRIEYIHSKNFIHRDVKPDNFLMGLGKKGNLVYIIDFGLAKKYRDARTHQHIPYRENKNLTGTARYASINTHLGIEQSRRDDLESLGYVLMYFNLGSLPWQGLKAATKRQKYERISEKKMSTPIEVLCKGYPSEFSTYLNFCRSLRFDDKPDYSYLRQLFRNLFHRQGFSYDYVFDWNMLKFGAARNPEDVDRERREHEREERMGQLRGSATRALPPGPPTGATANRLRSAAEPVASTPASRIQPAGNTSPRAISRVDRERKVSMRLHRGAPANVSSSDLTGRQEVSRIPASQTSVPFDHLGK

[5] = biological target: T2, Serine/threonine-protein kinase Nek1 (Homo sapiens) (UniProt Q96PY6); experiment: NEK1 SGC Tm panel (DSF)
T2 sequence (whole entry): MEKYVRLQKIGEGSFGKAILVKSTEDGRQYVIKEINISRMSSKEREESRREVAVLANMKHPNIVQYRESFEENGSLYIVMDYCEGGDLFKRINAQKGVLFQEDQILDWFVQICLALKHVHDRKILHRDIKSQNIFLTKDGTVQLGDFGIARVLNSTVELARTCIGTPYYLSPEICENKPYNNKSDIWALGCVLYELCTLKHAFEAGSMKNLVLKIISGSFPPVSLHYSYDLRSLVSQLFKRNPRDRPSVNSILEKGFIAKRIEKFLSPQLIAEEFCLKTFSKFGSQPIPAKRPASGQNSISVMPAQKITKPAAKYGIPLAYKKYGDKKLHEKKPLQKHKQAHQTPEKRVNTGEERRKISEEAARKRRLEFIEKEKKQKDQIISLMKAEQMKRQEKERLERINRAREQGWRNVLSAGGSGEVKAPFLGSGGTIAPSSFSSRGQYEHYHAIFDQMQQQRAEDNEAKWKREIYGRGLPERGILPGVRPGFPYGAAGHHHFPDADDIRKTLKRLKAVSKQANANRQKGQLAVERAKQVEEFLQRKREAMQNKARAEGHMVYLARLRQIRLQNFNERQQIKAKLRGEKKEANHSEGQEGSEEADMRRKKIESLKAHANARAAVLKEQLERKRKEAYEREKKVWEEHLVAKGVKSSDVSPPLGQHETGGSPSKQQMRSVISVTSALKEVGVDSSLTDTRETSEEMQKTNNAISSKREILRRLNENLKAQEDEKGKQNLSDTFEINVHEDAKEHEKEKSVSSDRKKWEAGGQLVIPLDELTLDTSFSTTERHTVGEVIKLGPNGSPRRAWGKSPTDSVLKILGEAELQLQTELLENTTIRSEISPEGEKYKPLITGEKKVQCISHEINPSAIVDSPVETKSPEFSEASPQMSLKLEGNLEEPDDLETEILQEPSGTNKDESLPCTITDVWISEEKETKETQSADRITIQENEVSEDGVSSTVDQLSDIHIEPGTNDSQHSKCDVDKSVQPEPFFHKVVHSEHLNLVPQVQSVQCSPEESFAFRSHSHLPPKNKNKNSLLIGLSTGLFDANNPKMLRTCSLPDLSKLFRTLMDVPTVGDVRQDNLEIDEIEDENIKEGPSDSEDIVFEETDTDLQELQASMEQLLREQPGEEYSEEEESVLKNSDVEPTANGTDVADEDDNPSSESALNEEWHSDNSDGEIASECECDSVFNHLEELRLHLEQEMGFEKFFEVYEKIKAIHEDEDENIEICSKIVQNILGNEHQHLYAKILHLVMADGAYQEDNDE

[6] = biological target: Serine/threonine-protein kinase PAK 4 (Homo sapiens) (UniProt O96013); experiment: PAK4 SGC Tm panel (DSF)
Serine/threonine-protein kinase PAK 4 (Homo sapiens), sequence (O96013 whole entry, looked up): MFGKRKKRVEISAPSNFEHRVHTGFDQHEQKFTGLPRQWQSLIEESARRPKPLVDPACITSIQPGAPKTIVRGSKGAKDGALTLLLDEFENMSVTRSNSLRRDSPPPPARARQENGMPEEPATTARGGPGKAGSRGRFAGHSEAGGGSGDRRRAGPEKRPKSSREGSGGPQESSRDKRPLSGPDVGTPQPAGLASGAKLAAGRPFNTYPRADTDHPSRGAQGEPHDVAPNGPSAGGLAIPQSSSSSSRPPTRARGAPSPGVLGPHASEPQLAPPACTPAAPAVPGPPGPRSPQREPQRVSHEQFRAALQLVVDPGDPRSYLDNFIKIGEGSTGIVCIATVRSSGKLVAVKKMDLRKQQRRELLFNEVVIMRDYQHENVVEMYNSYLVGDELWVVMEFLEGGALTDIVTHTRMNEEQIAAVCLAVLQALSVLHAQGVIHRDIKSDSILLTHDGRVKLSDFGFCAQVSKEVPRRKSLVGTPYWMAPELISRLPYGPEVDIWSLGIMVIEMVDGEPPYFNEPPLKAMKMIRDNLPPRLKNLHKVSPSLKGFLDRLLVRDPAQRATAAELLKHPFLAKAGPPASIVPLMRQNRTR

Row | delta Tm Staurosporine positive control [1] | ΔTm [1] | delta Tm Staurosporine positive control [2] | ΔTm [2] | delta Tm Staurosporine positive control [3] | ΔTm [3] | delta Tm Staurosporine positive control [4] | ΔTm [4] | delta Tm Staurosporine positive control [5] | ΔTm [5] | delta Tm Staurosporine positive control [6] | ΔTm [6] | Compound
1 | 9.52 | 1.38 | 5 | 0.194 | 8.53 | 0.294 | 3.74 | 0.508 | -0.578 | -0.226 | 13.4 | -0.0385 | COC[C@H](NC(=O)c1ccn(S(C)(=O)=O)c1)C(=O)Nc1nc(-c2cccc(-c3ccn(C)n3)c2)cs1
2 | 9.52 | 1.6 | 5 | 0.189 | 8.53 | 0.191 | 3.74 | 0.73 | -0.578 | -0.482 | 13.4 | -0.0631 | C[C@H](NC(=O)c1cn(C2(C#N)CC2)cn1)C(=O)Nc1nc(-c2cccc(-c3ccn(C)n3)c2)cs1
